Test results as given in article PMC11807261 (ACS infectious diseases, 2022).

Test system: GDI-KD-9, the Mtb H37Ra-derived glnA1 knockdown mutant
Type: cell-based, Mycobacterium tuberculosis

Row | Structure (SMILES) | GIC shift (times more sensitive) | GIC shift caused by the reduction of glnA1 expression | level at which growth inhibition saturates | growth inhibition at high concentrations
1 | COc1ccc2cc(-c3nc(C(C)(C)C)[nH]c3-c3ccnc(N)c3)ccc2c1 [11a] | 3.6 times | 3- to 4 fold | 20 % full scale | 
2 | C[C@]1(O)C[C@@H](c2nc(-c3ccc4ccc(-c5ccccc5)nc4c3)c3c(N)nccn32)C1 [LIN, linsitinib] |  |  | 20 % full scale | 
3 | CS(=N)(=O)CCC(N)C(=O)O [MSO, L-methionine S-sulfoximine] |  | 16 fold |  | inhibits the growth completely
4 | CO[C@H]1/C=C/O[C@@]2(C)Oc3c(C)c(O)c4c(O)c(c(/C=N/N5CCN(C)CC5)c(O)c4c3C2=O)NC(=O)/C(C)=C\C=C\[C@H](C)[C@H](O)[C@@H](C)[C@@H](O)[C@@H](C)[C@H](OC(C)=O)[C@@H]1C [RIF, rifampicin] | did not show any GIC shift | remained susceptible |  | 
